Test results taken from patent US5597915A, “Benzodiazepine derivatives, compositions containing them and their use in therapy” (Merck Sharp & Dohme Ltd., priority 1992, dated 1997).

Assays:
CCK Receptor (Pancreas) = molecular target: T1, CCK Receptor (Pancreas) (Rattus norvegicus, UniProt P30551); experiment: CCK Receptor Binding (Pancreas): inhibition of 125I-CCK-8 binding to rat pancreas membranes; set-up: species or system rat (male Sprague-Dawley); conditions: 50 pM 125I-CCK-8, 25° C., 2 hours, pH 6.5
T1 construct: The whole pancreas was dissected free of fat tissue and was homogenized; from tissue; host or cells: rat whole pancreas homogenate/membranes
T1 sequence (P30551 1-444): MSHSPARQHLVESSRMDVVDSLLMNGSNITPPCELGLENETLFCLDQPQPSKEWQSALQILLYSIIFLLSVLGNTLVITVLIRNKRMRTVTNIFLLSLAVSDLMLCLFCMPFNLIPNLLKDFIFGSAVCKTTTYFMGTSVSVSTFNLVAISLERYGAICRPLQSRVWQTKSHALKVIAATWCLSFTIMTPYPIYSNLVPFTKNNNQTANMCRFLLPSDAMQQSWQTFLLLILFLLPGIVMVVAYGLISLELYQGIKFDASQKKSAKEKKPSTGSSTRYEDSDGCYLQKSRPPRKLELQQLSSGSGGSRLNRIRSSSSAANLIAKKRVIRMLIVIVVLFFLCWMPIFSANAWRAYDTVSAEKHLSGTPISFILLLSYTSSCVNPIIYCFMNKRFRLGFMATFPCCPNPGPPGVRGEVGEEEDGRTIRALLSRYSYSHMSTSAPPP
Description: 1. CCK Receptor Binding (Pancreas)
CCK-8 sulphated was radiolabelled with ^125 I-Bolton Hunter reagent (2000 Ci/mmole). Receptor binding was performed according to Chang and Lotti (Proc. Natl. Acad. Sci. 83, 4923-4926, 1986) with minor modifications.
Male Sprague-Dawley rats (150-200 g) were sacrificed by decapitation. The whole pancreas was dissected free of fat tissue and was homogenized in 25 volumes of ice-cold 10 mM N-2-hydroxyethyl-piperazine-N'-2-ethane sulphonic acid (HEPES) buffer with 0.1% soya bean trypsin inhibitor (pH 7.4 at 25° C.) with a Kinematica Polytron. The homogenates were centrifuged at 47,800 g for 10 min. Pellets were resuspended in 10 volumes of binding assay buffer (20mM (HEPES)), 1 mM ethylene glycol-bis-(β-aminoethylether-N,N'-tetraacetic acid) (EGTA), 5 mM MgCl2, 150 mM NaCl, bacitracin 0.25 mg/ml, soya bean trypsin inhibitor 0.1 mg/ml, and bovine serum albumin 2 mg/ml pH 6.5 at 25° C.) using a Teflon (trademark) homogenizer, 15 strokes at 500 rpm. The homogenate was further diluted in binding assay buffer to give a final concentration of 0.5 mg original wet weight/1 ml buffer. […] The radioactivity on the filters was counted with a LKB gamma counter. […]

CCK Receptor (Brain) = molecular target: T2, CCK Receptor (Brain) (Cavia porcellus, UniProt H0VZC5); experiment: CCK Receptor Binding (Brain): inhibition of 125I-CCK-8 binding to guinea pig cortex membranes; set-up: species or system guinea pig (male Hartley); conditions: 50 pM 125I-CCK-8, 25° C., 2 hours, pH 6.5
T2 construct: the cortex was removed and homogenized in 25 mL ice-cold 0.32 M sucrose; from tissue; host or cells: guinea pig cerebral cortex P2 membranes
T2 sequence (H0VZC5 1-426): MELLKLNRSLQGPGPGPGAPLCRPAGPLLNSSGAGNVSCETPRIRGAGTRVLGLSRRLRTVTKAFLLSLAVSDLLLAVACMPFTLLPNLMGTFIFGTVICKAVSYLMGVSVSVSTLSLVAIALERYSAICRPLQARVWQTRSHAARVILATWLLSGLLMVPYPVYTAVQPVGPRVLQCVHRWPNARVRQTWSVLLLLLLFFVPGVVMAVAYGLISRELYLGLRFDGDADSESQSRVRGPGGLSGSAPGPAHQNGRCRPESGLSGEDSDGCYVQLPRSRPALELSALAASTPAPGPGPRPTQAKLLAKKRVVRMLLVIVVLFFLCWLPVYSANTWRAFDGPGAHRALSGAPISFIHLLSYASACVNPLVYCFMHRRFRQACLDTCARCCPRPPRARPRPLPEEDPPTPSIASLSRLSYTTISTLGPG
Description: 2. CCK Receptor Binding (Brain)
CCK-8 sulphated was radiolabelled and the binding was performed according to the description for the pancreas method with minor modifications.
Male Hartley guinea pigs (300-500 g) were sacrificed by decapitation and the cortex was removed and homogenized in 25 mL ice-cold 0.32 M sucrose. The homogenates were centrifuged at 1000 g for 10 minutes and the resulting supernatant was recentrifuged at 20,000 g for 20 minutes. The P2 pellet was resuspended in binding assay buffer (20 mM HEPES, 5 mM MgCl2, 0.25 mg/ml bacitracin, 1 mM EGTA pH 6.5 at 25° C.), using a Teflon (trademark) homogenizer (5 strokes at 500 rpm) to give a final concentration of 10 mg original wet weight /1.2 ml buffer. For the binding assay, 50 μl of buffer (for total binding) or unlabelled CCK-8 sulphated to give a final concentration of 1 μM (for nonspecific binding) or the compounds of Formula I (for determination of inhibition of ^125 I-CCK-8 binding) and 50 μl of 500 pM ^125 I-CCK-8 (i.e. final concentration of 50 pM) were added to 400 μl of the membrane suspensions in microfuge tubes. All assays were run in duplicate. […] The radioactivity on the filters was counted with a LKB gamma counter. […]

SMILES	IC50 (CCK Receptor (Pancreas))	IC50 (CCK Receptor (Brain))
CN1C(=O)C(NC(=O)Nc2cccc(-c3noc(=O)[nH]3)c2)N=C(C2CCC2)c2ccccc21 (racemic) [Example 2, N-[3(R,S)-5-Cyclobutyl-2,3-dihydro-1-methyl-2-oxo-1H-1,4-benzodiazepin-3-yl]N'-[3-(5-oxo-4H-1,2,4-oxadiazolin-3-yl)phenyl]urea]	110 nM	5.98 nM
CN1C(=O)[C@H](NC(=O)Nc2cccc(-c3noc(=O)[nH]3)c2)N=C(C2CCCCC2)c2ccccc21 [Example 1, N-[3(R)-5-Cyclohexyl-2,3-dihydro-1-methyl-2-oxo-1H-1,4-benzodiazepin-3-yl]N'-[3-(5-oxo-4H-1,2,4-oxadiazolin,3-yl)phenyl]urea]	500 nM	0.123 nM
